Laboratory results taken from patent US8354499B2, “Cyanine-based probe\tag-peptide pair fluorescence protein imaging and fluorescence protein imaging methods” (Battelle Memorial Institute, priority 2007, dated 2013).

Tests used:
[1] = depending on binding peptide; cited from earlier work
Non-tagged MLCK peptide = assay: Control titration of the probe with non-tagged MLCK peptide; format: binding; conditions: FIG. 2 circles
[2] = test system: peptide-tag (SEQ ID NO. 2) versus FlAsH tag (SEQ ID NO. 3); assay: Single-pot selective labeling / FRET study, tagged MLCK peptide and FlAsH-tag calmodulin; format: binding
Protocol: Fluorescent resonance energy transfer (FRET) studies were also performed. Calmodulin which is known to bind MLCK in a 1:1 ratio in the presence of calcium was covalently linked to a FlAsH-tag having sequence CysCysProGlyCysCys (SEQ ID NO. 3). SEQ ID NO. 2 was utilized to label the MLCK peptide as described above.

[3] = Absorbance, emission and photophysical properties of free and tag-bound probe; format: physicochemical
From the text: In addition to NMR, the synthesized probe of formula (I) was characterized by determining the absorbance and emission spectra, as presented in FIG. 1. The free probe has an absorbance maximum at 560 nm and an emission maximum at 568 nm.
The spectra of FIG. 1 are normalized to the probe/tagged MLCK peptide pair.
The tag bound probe has a quantum yield of 0.28.

[4] = test system: tagged MLCK peptide (calmodulin binding peptide of myosin light chain kinase with SEQ ID NO. 2 tag on the C-terminus); assay: Fluorescence titration of the formula (I) probe with tagged MLCK peptide; conditions: titration of tagged MLCK peptide into probe solution, FIG. 2
From the text: For the present study, a tagged peptide was created utilizing the calmodulin binding peptide of the myosin light chain kinase (MLCK) having SEQ ID NO. 2 engineered onto the C-terminus (henceforth tagged MLCK peptide). To determine the binding affinity of the probe to the tag, the tagged MLCK peptide was titrated into a solution containing a probe having formula (I). […] This corresponds to peak molar binding in the absence of ethanedithiol.

Compound	brightness (reported) [1]	fluorescence change on titration with non-tagged MLCK peptide (Non-tagged MLCK peptide)	preference for binding of the peptide-tag over FlAsH tag ([2]; single pot labeling with FlAsH and formula (I), FRET results)	FRET between FlAsH labeled calmodulin and formula (I) labeled tagged MLCK peptide ([2]; titration with 0.1-1 μM labeled peptide, FIG. 3)	extinction coefficient [3]	absorbance maximum ([3]; free probe) [nm]	emission maximum ([3]; free probe) [nm]	lifetime under photo bleaching conditions ([3]; peptide bound probe, relative to FlAsH)	fluorescence emission maximum ([3]; probe bound to peptide tag (red-shift)) [nm]	brightness relative to FlAsH and ReAsH ([3]; tag bound probe)	quantum yield ([3]; tag bound probe)	increase of probe fluorescence upon addition of tagged peptide [4] [fold]
O=C(O)c1ccccc1-c1c2ccc(=O)c([As]3SCCS3)c-2oc2c([As]3SCCS3)c(O)ccc12 [FlAsH]	41-60	–	–	–	–	–	–	–	–	–	–	–
CC1(C)C(/C=C/C=C2/N(CCCCS(=O)(=O)O)c3ccc([As]4SCCS4)cc3C2(C)C)=[N+](CCCCS(=O)(=O)[O-])c2ccc([As]3SCCS3)cc21 [formula (I)]	–	no increase in fluorescence	85/15	FRET was observed in proportion to labeling	180,000	560	568	three times longer than that of FlAsH	576	considerably higher than ReAsH	0.28	5.8
